Where two headings read alike, the source gives them in different places.
Experiments:
PAD1 [1] = target: T1, PAD1 (Homo sapiens, UniProt Q9ULC6); assay: Inactivation kinetics; assay type: biochemical; details: read-out: kinact/KI (apparent), PAD1
T1 sequence (Q9ULC6 1-663): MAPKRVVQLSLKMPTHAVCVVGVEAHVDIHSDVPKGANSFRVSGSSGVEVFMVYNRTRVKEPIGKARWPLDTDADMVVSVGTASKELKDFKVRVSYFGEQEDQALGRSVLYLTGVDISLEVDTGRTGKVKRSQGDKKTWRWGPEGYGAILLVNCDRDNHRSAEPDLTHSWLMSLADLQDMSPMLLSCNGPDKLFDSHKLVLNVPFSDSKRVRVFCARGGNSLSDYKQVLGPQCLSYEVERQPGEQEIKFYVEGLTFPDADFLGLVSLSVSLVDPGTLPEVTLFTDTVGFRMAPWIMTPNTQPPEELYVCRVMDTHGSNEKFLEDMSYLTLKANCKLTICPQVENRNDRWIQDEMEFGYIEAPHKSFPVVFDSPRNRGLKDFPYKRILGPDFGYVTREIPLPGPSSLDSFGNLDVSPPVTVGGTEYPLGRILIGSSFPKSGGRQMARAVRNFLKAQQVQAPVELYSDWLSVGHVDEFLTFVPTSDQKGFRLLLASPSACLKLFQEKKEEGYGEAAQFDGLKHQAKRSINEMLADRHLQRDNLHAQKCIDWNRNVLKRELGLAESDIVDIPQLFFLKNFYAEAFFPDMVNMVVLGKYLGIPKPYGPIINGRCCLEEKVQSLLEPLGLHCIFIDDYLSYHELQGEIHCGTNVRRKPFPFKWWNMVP

PAD2 [2] = target: T2, PAD2 (Homo sapiens, UniProt Q9Y2J8); assay: Inactivation kinetics; assay type: biochemical
PAD3 [3] = target: T3, PAD3 (Homo sapiens, UniProt Q9ULW8); assay: Inactivation kinetics; assay type: biochemical; details: read-out: kinact/KI (apparent), PAD3
T3 sequence (Q9ULW8 1-664): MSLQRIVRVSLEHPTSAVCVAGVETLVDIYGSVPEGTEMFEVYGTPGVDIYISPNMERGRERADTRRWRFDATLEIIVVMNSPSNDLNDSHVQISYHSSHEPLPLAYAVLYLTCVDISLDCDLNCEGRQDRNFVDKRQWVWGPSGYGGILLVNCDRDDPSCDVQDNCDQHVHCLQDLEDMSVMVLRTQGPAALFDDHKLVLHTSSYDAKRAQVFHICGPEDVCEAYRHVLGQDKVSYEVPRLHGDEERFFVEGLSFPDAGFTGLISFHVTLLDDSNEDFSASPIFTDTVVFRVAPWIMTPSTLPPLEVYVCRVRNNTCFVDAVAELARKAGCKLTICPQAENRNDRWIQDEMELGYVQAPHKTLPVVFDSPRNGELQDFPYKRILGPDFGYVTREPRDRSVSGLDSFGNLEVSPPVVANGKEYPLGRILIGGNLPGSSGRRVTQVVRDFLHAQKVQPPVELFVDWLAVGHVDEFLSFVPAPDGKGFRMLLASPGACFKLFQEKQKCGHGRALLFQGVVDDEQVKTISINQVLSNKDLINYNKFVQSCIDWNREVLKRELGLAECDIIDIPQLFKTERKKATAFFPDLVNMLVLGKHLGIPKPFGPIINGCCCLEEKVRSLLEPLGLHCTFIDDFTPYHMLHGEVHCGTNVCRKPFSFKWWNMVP

PAD4 [4] = target: T4, PAD4 (Homo sapiens, UniProt Q9UM07); assay: Inactivation kinetics; assay type: biochemical
PADs 1, 2, 3, and 4 = assay: Library screening, inhibition of the PADs described in words; assay type: biochemical, human; details: 10 μM, PADs 1–4
PAD4 [5] = target: T4, PAD4; assay: Irreversibility study; assay type: biochemical; details: for recovery of PAD4 enzymatic activity after dialysis: 100 μM compound, 1 h, dialysis overnight
PAD4 [6] = target: T4, PAD4; assay: Gel-based competitive ABPP with RFA; assay type: binding; details: RFA 10 μM, PAD4 2 μM, inhibitor 0–50 μM
PAD2 [7] = target: T2, PAD2; assay: Gel-based competitive ABPP with RFA; assay type: binding; details: RFA 10 μM, PAD2 2 μM, inhibitor 0–50 μM
PAD4 [8] = target: T4, PAD4; assay: Substrate; assay type: biochemical; details: inactivator 0.5 μM; BAEE 2 mM and 10 mM
WT-PAD4 = WT-PAD4 (Homo sapiens, UniProt Q9UM07); assay: MALDI-MS analysis of inhibitor-treated enzyme; assay type: binding; details: 1:10 enzyme:inhibitor, 1 h, WT-PAD4 3 μM
PAD4 C645A = PAD4 C645A (Homo sapiens, UniProt Q9UM07, C645A); assay: MALDI-MS analysis of inhibitor-treated enzyme; assay type: binding; details: 1:10 enzyme:inhibitor, 1 h, PAD4 C645A 5 μM
PAD2 [9] = target: T2, PAD2; assay: MALDI-MS analysis of inhibitor-treated enzyme; assay type: binding; details: 1:10 enzyme:inhibitor, 1 h, PAD2 3 μM
U2OS cells = assay: XTT cell viability assay; details: 10 μM, 3 days
NIH 3T3 cells = assay: XTT cell viability assay; details: 10 μM, 3 days
PAD1 [10] = target: T1, PAD1; assay: Irreversibility study; assay type: biochemical; details: 170-fold excess of 17, dialyzed 20 h
PAD2 [11] = target: T2, PAD2; assay: Irreversibility study; assay type: biochemical; details: 170-fold excess of 17, dialyzed 20 h
PAD3 [12] = target: T3, PAD3; assay: Irreversibility study; assay type: biochemical; details: 170-fold excess of 17, dialyzed 20 h
PAD4 [13] = target: T4, PAD4; details: cited from earlier work
PADs = details: second generation mechanism-based inactivator; cited from earlier work
[14] = read-out: kinact/KI (apparent), PAD2
[15] = read-out: kinact/KI (apparent), PAD4

T4 sequence (Q9UM07 whole entry): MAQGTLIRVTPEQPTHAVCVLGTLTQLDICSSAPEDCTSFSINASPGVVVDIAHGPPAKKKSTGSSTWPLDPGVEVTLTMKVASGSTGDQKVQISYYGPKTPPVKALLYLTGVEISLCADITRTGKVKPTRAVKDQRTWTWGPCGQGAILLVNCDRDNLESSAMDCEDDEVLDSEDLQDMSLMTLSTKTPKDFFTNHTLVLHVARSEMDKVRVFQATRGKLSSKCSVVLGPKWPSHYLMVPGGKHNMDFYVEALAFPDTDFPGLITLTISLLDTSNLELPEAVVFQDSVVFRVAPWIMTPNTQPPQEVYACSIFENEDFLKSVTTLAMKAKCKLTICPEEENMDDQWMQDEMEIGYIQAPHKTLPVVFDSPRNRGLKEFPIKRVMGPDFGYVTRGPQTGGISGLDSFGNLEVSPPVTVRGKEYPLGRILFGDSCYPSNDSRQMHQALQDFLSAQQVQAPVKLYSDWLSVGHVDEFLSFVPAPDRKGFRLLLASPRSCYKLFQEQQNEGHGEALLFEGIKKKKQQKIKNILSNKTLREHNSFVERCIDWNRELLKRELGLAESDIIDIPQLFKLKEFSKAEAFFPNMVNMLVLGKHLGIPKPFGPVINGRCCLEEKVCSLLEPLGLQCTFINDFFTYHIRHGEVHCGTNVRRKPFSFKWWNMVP
T2 sequence (Q9Y2J8 whole entry): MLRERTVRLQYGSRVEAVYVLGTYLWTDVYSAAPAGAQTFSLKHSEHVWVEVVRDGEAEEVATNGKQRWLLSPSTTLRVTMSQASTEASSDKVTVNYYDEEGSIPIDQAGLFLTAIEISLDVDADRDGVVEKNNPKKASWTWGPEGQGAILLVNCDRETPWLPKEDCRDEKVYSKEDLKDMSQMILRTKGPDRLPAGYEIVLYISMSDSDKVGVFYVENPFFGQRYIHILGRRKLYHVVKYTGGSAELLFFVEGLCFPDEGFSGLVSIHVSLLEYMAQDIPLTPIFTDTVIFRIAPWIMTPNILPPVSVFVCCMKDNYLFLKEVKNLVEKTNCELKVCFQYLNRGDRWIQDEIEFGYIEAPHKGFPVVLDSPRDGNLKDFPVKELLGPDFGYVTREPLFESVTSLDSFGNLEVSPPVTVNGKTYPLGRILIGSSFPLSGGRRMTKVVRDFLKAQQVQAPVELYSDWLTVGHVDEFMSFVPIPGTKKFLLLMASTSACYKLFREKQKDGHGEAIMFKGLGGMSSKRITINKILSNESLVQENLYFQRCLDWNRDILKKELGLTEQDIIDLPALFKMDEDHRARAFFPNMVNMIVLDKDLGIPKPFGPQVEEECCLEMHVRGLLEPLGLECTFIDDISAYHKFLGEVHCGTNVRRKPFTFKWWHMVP
Sequence of WT-PAD4 (Q9UM07 whole entry): as the sequence (Q9UM07 whole entry) above
Sequence of PAD4 C645A (Q9UM07 whole entry C645A): as the sequence (Q9UM07 whole entry) above, with C645A counted along it

NC1=CC(=O)c2ccc(-c3ccccn3)nc2C1=O [Compound 3]
kinact/KI (PAD1 [1]): 53.3 M⁻¹ s⁻¹
kinact (PAD2 [2]; read-out: kinact, PAD2): 0.00117 s⁻¹
kinact/KI (PAD2 [2]; read-out: kinact/KI, PAD2): 138 M⁻¹ s⁻¹
kinact/KI (PAD3 [3]): 30 M⁻¹ s⁻¹
kinact/KI (PAD4 [4]; read-out: kinact/KI, PAD4): 95 M⁻¹ s⁻¹
inhibition of the PADs (in words) (PADs 1, 2, 3, and 4): strong inhibition
recovery of PAD4 enzymatic activity after dialysis (PAD4 [5]): little to no activity is recovered
labeling of PAD4 by RFA (PAD4 [6]): prevent labeling
labeling of PAD2 by RFA (PAD2 [7]): prevent labeling
substrate protection against inactivation of PAD4 (PAD4 [8]): little substrate protection was observed
mass shift of WT-PAD4 (Δ Da) (WT-PAD4): 692 Da
mass shift of PAD4 C645A (Δ Da) (PAD4 C645A): 737 Da
mass shift of PAD2 (PAD2 [9]): 324 Da

COC(=O)c1nc(C(C)=O)c2[nH]c3ccccc3c2c1C [Compound 4]
inhibition of the PADs (in words) (PADs 1, 2, 3, and 4): little to no inhibition

COC(=O)c1cccc(-c2ccc3ccc(Br)c(O)c3n2)n1 [Compound 5]
inhibition of the PADs (in words) (PADs 1, 2, 3, and 4): no inhibition

COC(=O)c1nc(C(=O)OC)c(NC(C)=O)c(-c2ccccc2Br)c1C [Compound 6]
inhibition of the PADs (in words) (PADs 1, 2, 3, and 4): little to no inhibition

CCOC(=O)c1nc(C(=O)OCC)c(C(=O)OCC)c(-c2ccc(OC)c(OC)c2OCc2ccccc2)c1C [Compound 7]
inhibition of the PADs (in words) (PADs 1, 2, 3, and 4): little to no inhibition

COC(=O)c1nc(C(=O)OC)c(N)c(-c2ccccc2Br)c1C [Compound 8]
inhibition of the PADs (in words) (PADs 1, 2, 3, and 4): little to no inhibition

COC1=C(Br)C(=O)c2ncccc2C1=O [Compound 10]
kinact/KI (PAD1 [1]): 60 M⁻¹ s⁻¹
kinact/KI (PAD2 [2]; [14]): 63.3 M⁻¹ s⁻¹
kinact/KI (PAD3 [3]): 25 M⁻¹ s⁻¹
kinact/KI (PAD4 [4]; [15]): 81.7 M⁻¹ s⁻¹
inhibition of the PADs (in words) (PADs 1, 2, 3, and 4): strong inhibition
recovery of PAD4 enzymatic activity after dialysis (PAD4 [5]): little to no activity is recovered
cells remaining viable, U2OS (U2OS cells): retain significant viability
cells remaining viable, NIH 3T3 (NIH 3T3 cells): retain significant viability

NC1=CC(=O)c2cccnc2C1=O [Compound 14]
kinact/KI (PAD1 [1]): 76.7 M⁻¹ s⁻¹
kinact/KI (PAD2 [2]; [14]): 86.7 M⁻¹ s⁻¹
kinact/KI (PAD3 [3]): 51.7 M⁻¹ s⁻¹
kinact/KI (PAD4 [4]; [15]): 93.3 M⁻¹ s⁻¹
inhibition of the PADs (in words) (PADs 1, 2, 3, and 4): strong inhibition
recovery of PAD4 enzymatic activity after dialysis (PAD4 [5]): little to no activity is recovered

NC1=CC(=O)c2ccc(-c3cccc(C(=O)O)n3)nc2C1=O [Compound 17]
inhibition of the PADs (in words) (PADs 1, 2, 3, and 4): strong inhibition
PAD1 activity regained after dialysis (PAD1 [10]): Little to no activity was regained
PAD2 activity regained after dialysis (PAD2 [11]): Little to no activity was regained
PAD3 activity regained after dialysis (PAD3 [12]): Little to no activity was regained
recovery of PAD4 enzymatic activity after dialysis (PAD4 [5]): little to no activity is recovered
PAD4 activity regained after dialysis (PAD4 [5]; 170-fold excess of 17, dialyzed 20 h): Little to no activity was regained
labeling of PAD4 by RFA (PAD4 [6]): prevent labeling
labeling of PAD2 by RFA (PAD2 [7]): prevent labeling
cells remaining viable, U2OS (U2OS cells): retain significant viability
cells remaining viable, NIH 3T3 (NIH 3T3 cells): retain significant viability

NC1=C(N)C(=O)c2ccccc2C1=O [Compound 19]
inhibition of the PADs (PADs 1, 2, 3, and 4): ~ 50%

NC1=CC(=O)c2ccc(-c3cc(C(=O)O)ccc3N)nc2C1=O [Compound 22]
inhibition of the PADs (in words) (PADs 1, 2, 3, and 4): loss in potency

O=C(O)c1cccc(-c2ccc3ccc(Br)c(OCc4ccccc4)c3n2)n1 [Compound 23]
inhibition of the PADs (in words) (PADs 1, 2, 3, and 4): no inhibition

COC(=O)c1cc(-c2ccccc2)c(C(=O)OC)c(-c2ccc3ccccc3n2)n1 [Compound 24]
inhibition of the PADs (in words) (PADs 1, 2, 3, and 4): no inhibition

COC(=O)c1nnc(C(=O)OC)c(-c2ccc3c([N+](=O)[O-])c(OC)ccc3n2)n1 [Compound 25]
inhibition of the PADs (in words) (PADs 1, 2, 3, and 4): no inhibition

COC(=O)c1nnc(C(=O)OC)c(-c2ccc3cc(OC)ccc3n2)n1 [Compound 26]
inhibition of the PADs (in words) (PADs 1, 2, 3, and 4): no inhibition

COc1ccc2ncccc2c1[N+](=O)[O-] [Compound 29]
inhibition of the PADs (in words) (PADs 1, 2, 3, and 4): no inhibition

COc1ccc2nc(C#N)ccc2c1 [Compound 30]
inhibition of the PADs (in words) (PADs 1, 2, 3, and 4): no inhibition

COC1=C(N)C(=O)c2nc(-c3nc(C(=O)O)c(C)c(-c4ccc(OC)c(OC)c4O)c3N)ccc2C1=O [Streptonigrin, reference compound]
labeling of PAD4 by RFA (PAD4 [6]): decreased the labeling
labeling of PAD2 by RFA (PAD2 [7]): decreased the labeling
mass shift of WT-PAD4 (Δ Da) (WT-PAD4): 710 Da
mass shift of PAD4 C645A (Δ Da) (PAD4 C645A): 924 Da
mass shift of PAD2 (PAD2 [9]): 469 Da
preferential inhibition of PAD4 versus PAD1 (PAD4 [13]): 119 fold
preferential inhibition of PAD4 versus PAD2 (PAD4 [13]): 37 fold
preferential inhibition of PAD4 versus PAD3 (PAD4 [13]): 126 fold

CC(=O)N[C@H](C(=O)N[C@@H](CC(=O)O)C(=O)N[C@@H](CCCN=C(N)CF)C(N)=O)[C@@H](C)O [Thr-Asp-F-amidine (TDFA), Thr-Asp-F-amidine]
kinact/KI (PADs): 26,000 M^−1min^−1
